This passage reports activity results from publication PMC8351955, “Targeting Mycobacterium tuberculosis response to environmental cues for the development of effective antitubercular drugs” (PLoS Biology, 2021).

Assay [1] concerns CDC1551(rv1405c′::GFP) reporter Mtb strain. The experiment in a line: microbe, parasite or virus in culture. In kind it is cell-based, Mycobacterium tuberculosis. To be noted: Mycobacterium tuberculosis; for activity at 10 µM: read-out: rv1405c'::GFP secondary assay NPA% at 10 µM compound; for activity at 20 µM: read-out: rv1405c'::GFP secondary assay NPA% at 20 µM compound.
The test system of assay [2] is CDC1551(rv2390c′::GFP) reporter Mtb strain, response to high [Cl−]. The assay can be described thus: microbe, parasite or virus in culture. It counts as cell-based, Mycobacterium tuberculosis. The conditions noted are these: Mycobacterium tuberculosis, 144 h; for activity at 20 µM: read-out: rv2390c'::GFP validation assay NPA% at 20 µM compound.
[3] abbreviates: pH 6.4, […], DMSO positive control = 100%, read-out: Primary screen rv2390c'::GFP NPA%.
[4] abbreviates: 10 µM, pH 6.4, 250 mM NaCl, 6 days, read-out: rv2390c'::GFP validation assay NPA% at 10 µM compound.

Read-outs that look alike come from different tables or passages of the source.

Take `CC(=O)N1N=C(c2c(-c3ccccc3)c3ccc(C)cc3[nH]c2=O)CC1c1ccco1` (stereo not drawn) [RU-0204568, CC(=O)N1N=C(CC1C1=CC=CO1)C1=C(C2=CC=CC=C2)C2=C(NC1=O)C=C(C)C=C2]: the activity at 10 µM in assay [1] came to 102 ± 12.9%; in assay [2] (setting [3]) it was 162%; in assay [2] (setting [4]), 125 ± 9.5%. For the same molecule, the activity at 20 µM turned out to be 116 ± 27.3% in assay [1] and 198 ± 21% in assay [2] (pH 6.4, 250 mM NaCl, 6 days).

In the case of `Cc1ccc2cc(S(=O)(=O)NCCn3nc(C)c(Cl)c3C)ccc2c1` [RU-0211306, CC1=NN(CCNS(=O)(=O)C2=CC3=C(C=C2)C=C(C)C=C3)C(C)=C1Cl], the activity at 10 µM in assay [1] was found to be 84.4 ± 8.8%; in assay [2] (setting [3]), 154%; in assay [2] (setting [4]) it was 122 ± 3.2%. Further, the activity at 20 µM came out at 99.4 ± 9.4% in assay [1] and 156 ± 2.1% in assay [2] (pH 6.4, 250 mM NaCl, 6 days).

Take `COCCOc1ccc(NS(=O)(=O)c2cn(C)c(Cl)n2)cn1` [RU-0203727, COCCOC1=NC=C(NS(=O)(=O)C2=CN(C)C(Cl)=N2)C=C1]: the activity at 10 µM in assay [1] came out at 330 ± 19.1%; in assay [2] (setting [3]) it was 277%; in assay [2] (setting [4]), 168 ± 16.8%. The activity at 20 µM in assay [1] is 996 ± 23.7%; in assay [2] (pH 6.4, 250 mM NaCl, 6 days), 309 ± 6.8%.

For `Cc1cc(C(C)C(=O)Nc2ccc(N3CCN(C)CC3)cn2)c(C)o1` (stereo not drawn) [RU-0182922, CC(C(=O)NC1=NC=C(C=C1)N1CCN(C)CC1)C1=C(C)OC(C)=C1], the activity at 10 µM in assay [1] was 96.9 ± 6.7%; in assay [2] (setting [3]), 174%; in assay [2] (setting [4]), 139 ± 18.3%. In addition, the activity at 20 µM in assay [1] came out at 106 ± 5.2%; in assay [2] (pH 6.4, 250 mM NaCl, 6 days), 164 ± 13.6%.

Take `COc1ccc(Cl)cc1-c1cc(NC(=O)c2c(C)noc2C)[nH]n1` [RU-0210243, COC1=C(C=C(Cl)C=C1)C1=NNC(NC(=O)C2=C(C)ON=C2C)=C1]: the activity at 10 µM in assay [1] stood at 342.7 ± 3.1%; in assay [2] (setting [3]), 254%; in assay [2] (setting [4]) it was 211 ± 11.6%. In addition, the activity at 20 µM in assay [1] turned out to be 737 ± 25.3%; in assay [2] (pH 6.4, 250 mM NaCl, 6 days) it was 357 ± 20%.

On to `CC(CCc1ccccc1)Nc1ncnc(-n2cccn2)c1N` (stereo not drawn) [RU-0203332, CC(CCC1=CC=CC=C1)NC1=C(N)C(=NC=N1)N1C=CC=N1], for which the activity at 10 µM in assay [1] stood at 117 ± 5.3%; in assay [2] (setting [3]) it was 151%; in assay [2] (setting [4]), 100 ± 2.9%. Also, the activity at 20 µM was 182 ± 8.5% in assay [1] and 135 ± 16.1% in assay [2] (pH 6.4, 250 mM NaCl, 6 days).

Take `CC(OC(=O)CC(C)(C)C)c1nc2cc(Cl)ccc2n1C` (stereo not drawn) [RU-0203619, CC(OC(=O)CC(C)(C)C)C1=NC2=C(C=CC(Cl)=C2)N1C]: the activity at 10 µM came out at 75.6 ± 6.2% in assay [1], 153% in assay [2] (setting [3]) and 95.6 ± 13.8% in assay [2] (setting [4]). For the same molecule, the activity at 20 µM was 96.6 ± 5.5% in assay [1] and 131 ± 11% in assay [2] (pH 6.4, 250 mM NaCl, 6 days).

Consider `Cn1ccc(C(=O)Nc2nc(Sc3ccccc3)ns2)cc1=O` [RU-0206593, CN1C=CC(=CC1=O)C(=O)NC1=NC(SC2=CC=CC=C2)=NS1], for which the activity at 10 µM in assay [1] worked out at 42 ± 9.6%; in assay [2] (setting [3]), 42.6%; in assay [2] (setting [4]), 39.2 ± 6.9%. Further, the activity at 20 µM in assay [1] came to 38.3 ± 17.6%; in assay [2] (pH 6.4, 250 mM NaCl, 6 days), 22.7 ± 6.8%.

For `CCc1nc(C(=O)Nc2nc(C#N)c(C#N)[nH]2)nn1-c1ccccc1Cl` [RU-0208082, CCC1=NC(=NN1C1=C(Cl)C=CC=C1)C(=O)NC1=NC(C#N)=C(N1)C#N], the activity at 10 µM in assay [1] amounted to 418 ± 56.2%; in assay [2] (setting [3]), 309%; in assay [2] (setting [4]), 258 ± 15.1%. The activity at 20 µM in assay [1] turned out to be 677 ± 106%; in assay [2] (pH 6.4, 250 mM NaCl, 6 days), 380 ± 38.2%.

For the molecule `Cc1nc2nc(-c3cccs3)nn2c(O)c1C1CCS(=O)(=O)C1` (stereo not drawn) [RU-0194400, CC1=NC2=NC(=NN2C(O)=C1C1CCS(=O)(=O)C1)C1=CC=CS1], the activity at 10 µM is -2.1 ± 2.6% in assay [1], 7.1% in assay [2] (setting [3]) and 9.1 ± 3.9% in assay [2] (setting [4]). The activity at 20 µM in assay [1] worked out at 2.5 ± 7%; in assay [2] (pH 6.4, 250 mM NaCl, 6 days) it was 15 ± 5.3%.

For the molecule `Cc1ccc(NC(=O)c2cc(C)n(C3CC3)c2C)c(C)c1` [RU-0276186, CC1=CC(C(=O)NC2=C(C)C=C(C)C=C2)=C(C)N1C1CC1], the values for the activity at 10 µM in assay [1], in assay [2] (setting [3]) and in assay [2] (setting [4]) were 95.4 ± 4.5%, 159% and 105 ± 5.3%, respectively. The activity at 20 µM in assay [1] is 123 ± 13.3%; in assay [2] (pH 6.4, 250 mM NaCl, 6 days) it was 157 ± 13.8%.

With `CCOC(=O)Cc1cc(=O)n2nc(C(F)(F)F)c(-c3ccccc3)c2[nH]1` [RU-0171667, CCOC(=O)CC1=CC(=O)N2N=C(C(=C2N1)C1=CC=CC=C1)C(F)(F)F], the values for the activity at 10 µM in assay [1], in assay [2] (setting [3]) and in assay [2] (setting [4]) were 84.5 ± 11.2%, 163% and 148 ± 28.3%, respectively. The activity at 20 µM came to 94.8 ± 4% in assay [1] and 178 ± 17.6% in assay [2] (pH 6.4, 250 mM NaCl, 6 days).
